Measured values reported in ChEMBL document CHEMBL5120801, “Targeting Bromodomain-Selective Inhibitors of BET Proteins in Drug Discovery and Development” (J Med Chem, 2022).
Blank lines part the entries; values can stand above or below the compound they belong to.

Assays:
MV4-11 [1] = assay: Antiproliferative activity against human MV4-11 cells by Cell Titer Glo assay; assay type: functional, cell-based
MV4-11 [2] = assay: Antiproliferative activity against human MV4-11 cells by CCK-8 assay; assay type: functional, cell-based
Interleukin-1 beta = molecular target: T1, Interleukin-1 beta (Mus musculus, UniProt P10749); assay: Inhibition of IL-1beta in mouse BMDM cells; assay type: cell-based
T1 sequence (P10749 whole entry): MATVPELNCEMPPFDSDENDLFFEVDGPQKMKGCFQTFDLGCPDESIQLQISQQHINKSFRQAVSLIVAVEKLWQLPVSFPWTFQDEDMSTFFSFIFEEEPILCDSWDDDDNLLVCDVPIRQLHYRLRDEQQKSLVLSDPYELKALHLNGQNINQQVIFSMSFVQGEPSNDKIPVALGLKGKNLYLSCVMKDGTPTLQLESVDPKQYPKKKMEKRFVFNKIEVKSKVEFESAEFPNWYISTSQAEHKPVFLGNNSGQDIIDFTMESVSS

[3] = molecular target: T2, Bromodomain-containing protein 4 (Homo sapiens, UniProt O60885); assay: Binding affinity to BRD4-BD1 (unknown origin)
[4] = molecular target: T2, Bromodomain-containing protein 4; assay: Binding affinity to BRD4-BD2 (unknown origin)

IC50 (MV4-11 [1]): 8 nM
Structure (SMILES): CC(=O)N1c2ccc(-c3cc[nH]n3)cc2[C@H](Nc2ccc(C#N)cc2)C[C@@H]1C

IC50 (MV4-11 [2]): 30200 nM
Structure (SMILES): O=c1cc(-c2ccc(O)c(O)c2)oc2c(O)c(O)ccc12

IC50 (Interleukin-1 beta): 2100 nM
Structure (SMILES): COc1cc(OC)c2c(=O)[nH]c(-c3cc(C)c(OCCN4CCCC4)c(C)c3)nc2c1

Ki [3]: 79 nM | Ki [4]: 1.3 nM
Structure (SMILES): CCNC(=O)C1=CC2C(c3cc(S(=O)(=O)CC)ccc3Oc3c(C)cc(F)cc3C)=CN(C)C(=O)C2N1 (stereo not given)
